Test results reported in ChEMBL document CHEMBL1140011, “Discovery of cyclopentane- and cyclohexane-trans-1,3-diamines as potent melanin-concentrating hormone receptor 1 antagonists” (Bioorg Med Chem Lett, 2007).

Assays:
[1] = molecular target: T1, Melanin-concentrating hormone receptor 1 (Homo sapiens, UniProt Q99705); test: Displacement of [125I]MCH from human MCHR1 expressed in HEK293 cells; assay type: cell-based
[2] = molecular target: T1, Melanin-concentrating hormone receptor 1; test: Antagonist activity at human MCHR1 expressed in HEK293 cells assessed as [35S]GTP-gamma-S accumulation; assay type: functional, cell-based
[3] = Metabolic stability assessed as intrinsic clearance in human liver microsomes; assay type: ADME, Microsome
[4] = Clearance in C57BL/6J mouse at 20 umol/kg, iv and 20 umol/kg, po; assay type: ADME, organism-based; details: in vivo
[5] = Volume of distribution at steady state in C57BL/6J mouse at 20 umol/kg, iv and 20 umol/kg, po; assay type: ADME, organism-based; details: in vivo, read-out: Vdss
[6] = Oral bioavailability in C57BL/6J mouse at 20 umol/kg; assay type: ADME, organism-based; details: in vivo
[7] = Half life in C57BL/6J mouse plasma at 20 umol/kg, iv and 20 umol/kg, po; assay type: ADME, organism-based
Mus musculus = test: Cmax in C57BL/6J mouse brain at 20 umol/kg, iv and 20 umol/kg, po; assay type: ADME, organism-based; details: in vivo
[8] = Tmax in C57BL/6J mouse brain at 20 umol/kg, iv and 20 umol/kg, po; assay type: ADME, organism-based
[9] = Cmax in C57BL/6J mouse plasma at 20 umol/kg, iv and 20 umol/kg, po; assay type: ADME, organism-based
[10] = Tmax in C57BL/6J mouse plasma at 20 umol/kg, iv and 20 umol/kg, po; assay type: ADME, organism-based
[11] = Ratio of Cmax in brain to plasma in C57BL/6J mouse at 20 umol/kg, iv and 20 umol/kg, po; assay type: ADME, organism-based; details: read-out: BPR
[12] = Fraction unbound in C57BL/6J mouse plasma; assay type: ADME, cell-free

T1 sequence (Q99705 whole entry): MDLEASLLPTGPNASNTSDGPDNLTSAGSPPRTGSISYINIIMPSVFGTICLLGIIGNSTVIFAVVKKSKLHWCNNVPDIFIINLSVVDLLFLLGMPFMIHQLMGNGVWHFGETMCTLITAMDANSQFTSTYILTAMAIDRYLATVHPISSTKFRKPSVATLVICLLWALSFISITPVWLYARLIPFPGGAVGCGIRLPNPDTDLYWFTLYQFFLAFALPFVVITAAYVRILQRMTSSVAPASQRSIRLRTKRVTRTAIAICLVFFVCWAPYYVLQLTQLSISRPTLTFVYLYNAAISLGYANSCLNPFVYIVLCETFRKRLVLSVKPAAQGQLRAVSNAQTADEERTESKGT

| Compound | IC50 [1] [nM] | microsomal CLint [3] [µL/min/mg] | other results |
| --- | --- | --- | --- |
| COc1ccc2c(C)cc(N[C@H]3CC[C@H](NCc4cn(C)c5cc(C#N)ccc45)C3)nc2c1 | 33 | < 12 | IC50 [2]: 118 nM |
| COc1cccc2nc(N[C@H]3CCC[C@H](NCc4ccsc4)C3)ccc12 | 54 | 38 | IC50 [2]: 42 nM |
| COc1ccc2c(C)cc(N[C@H]3CC[C@H](NCc4cn(C)c5c(C#N)cccc45)C3)nc2c1 | 20 | < 12 | IC50 [2]: 127 nM |
| COc1ccc2nc(N[C@H]3CCC[C@H](NCc4ccsc4)C3)c(C)cc2c1 | 1390 |  |  |
| COc1cc(N[C@H]2CCC[C@H](NCc3ccsc3)C2)nc2ccccc12 | 9 |  | IC50 [2]: 8 nM |
| COc1ccc2c(C)cc(N[C@H]3CCC[C@H](NCc4cn(C(=O)N(C)C)c5ccc(Cl)cc45)C3)nc2c1 | 58 | 52 |  |
| COc1ccc2c(C)cc(N[C@H]3CCC[C@H](NCc4ccc5nsnc5c4)C3)nc2c1 | 16 | 227 |  |
| COc1ccc2nc(NCCNCc3ccsc3)cc(C)c2c1 | 3590 |  |  |
| COc1ccc2c(C)cc(N[C@H]3CCC[C@H](NCc4cnccn4)C3)nc2c1 | 89 |  |  |
| COc1ccc2c(C)cc(N[C@H]3CCC[C@H](NCc4ccc(Cl)c(Cl)c4)C3)nc2c1 | 13 | 59 |  |
| COc1ccc2c(C)cc(N[C@H]3CCC[C@H](NCc4cccc(OC(F)(F)F)c4)C3)nc2c1 | 15 | 64 |  |
| COc1cc(N[C@H]2CCC[C@H](NCc3ccsc3)C2)nc2ccc(OC(C)C)cc12 | 231 |  |  |
| COc1ccc2nc(NCCCCNCc3ccsc3)cc(C)c2c1 | > 33000 |  |  |
| COc1ccc2nc(N[C@@H]3CCC[C@@H](NCc4ccsc4)C3)cc(C)c2c1 | 411 |  |  |
| COc1ccc(Br)c(CN[C@H]2CCC[C@H](Nc3cc(C)c4ccc(OC)cc4n3)C2)c1 | 28 |  |  |
| COc1ccc2c(C)cc(N[C@H]3CCC[C@H](NCc4cccc5nsnc45)C3)nc2c1 | 10 |  |  |
| COc1ccc2c(C)cc(N[C@H]3CCC[C@H](NCc4ccsc4)C3)nc2c1 | 0.1 | 32 | IC50 [2]: 1 nM |
| COc1ccc2nc(N[C@H]3CC[C@H](NCc4ccsc4)C3)cc(C)c2c1 | 62 |  |  |
| COc1ccc2nc(N[C@@H]3C[C@@H]4C[C@H]3[C@H](NCc3ccsc3)C4)cc(C)c2c1 | 5010 |  |  |
| COc1ccc2nc(N[C@H]3C[C@H]4C[C@@H]3[C@@H](NCc3ccsc3)C4)cc(C)c2c1 | 369 |  |  |
| COc1ccc2c(C)cc(N[C@H]3CCC[C@H](NCc4cncc5ccccc45)C3)nc2c1 | 22 | 500 |  |
| COc1ccc2nc(N[C@H]3CCC[C@H](NCc4ccsc4)C3)ccc2c1 | 57 | 295 | IC50 [2]: 25 nM |
| Clc1ccc2nc(N[C@H]3CCC[C@H](NCc4ccsc4)C3)ccc2c1 | 571 |  |  |
| CN(C)c1ccc2nc(N[C@H]3CCC[C@H](NCc4ccsc4)C3)ccc2c1 | 847 |  |  |
| COc1ccc2nc(NCCCNC(=O)c3ccsc3)cc(C)c2c1 | 106 |  |  |

| Compound | IC50 [1] [nM] | microsomal CLint [3] [µL/min/mg] | other results |
| --- | --- | --- | --- |
| COc1ccc2nc(N[C@H]3CC[C@H](N(C)Cc4ccsc4)C3)cc(C)c2c1 | 119 |  |  |
| COc1ccc2nc(N(C)[C@H]3CC[C@H](NCc4ccsc4)C3)cc(C)c2c1 | 2300 |  |  |
| CC(=O)N(C)c1ccc2nc(N[C@H]3CCC[C@H](NCc4ccsc4)C3)ccc2c1 | 2520 |  |  |
| COc1ccc2nc(N3CCC(NCc4ccsc4)CC3)cc(C)c2c1 | 2130 |  |  |
| c1ccc2nc(N[C@H]3CCC[C@H](NCc4ccsc4)C3)ccc2c1 | 68 |  | IC50 [2]: 234 nM |
| COc1ccc2c(C)cc(N[C@H]3CC[C@H](NCc4cn(C)c5ccccc45)C3)nc2c1 | 9 | < 12 | IC50 [2]: 85 nM |
| COc1ccc2c(C)cc(N[C@H]3CC[C@H](NCc4cn(C)c5cccnc45)C3)nc2c1 | 29 | 20 | IC50 [2]: 83 nM; clearance [4]: 15 mL/min/kg; Vd [5]: 7.6 L/kg; bioavailability [6]: 100%; half-life [7]: 8.6 h; Cmax (Mus musculus): 0.5 µmol/kg; Tmax [8]: 0.26 h; Cmax [9]: 3.78 µM; Tmax [10]: 24 h; Kp [11]: 0.13; fraction unbound [12]: 0.065 |
| COc1ccc2c(C)cc(N[C@H]3CC[C@H](NCc4cn(C)c5c4ccc4cccnc45)C3)nc2c1 | 71 | 12 |  |
| COc1ccc2c(C)cc(N[C@H]3CC[C@H](NCc4cn(C)c5ccc(C#N)cc45)C3)nc2c1 | 39 | < 12 |  |
| COc1ccc2nc(N[C@H]3C[C@@H]4C[C@H]3[C@@H](NCc3ccsc3)C4)cc(C)c2c1 | 35 |  |  |
| COc1ccc2c(C)cc(N[C@H]3CCC[C@H](NCc4ccc(S(C)(=O)=O)cc4Cl)C3)nc2c1 | 50 | 269 |  |
| CN(C)c1cc(N[C@H]2CCC[C@H](NCc3ccsc3)C2)nc2ccccc12 | 29 | 30 | IC50 [2]: 97 nM |
| N#Cc1cc(N[C@H]2CCC[C@H](NCc3ccsc3)C2)nc2ccccc12 | 9920 |  |  |
| COc1cc(N[C@H]2CCC[C@H](NCc3ccsc3)C2)nc2ccc(F)cc12 |  |  | IC50 [2]: 90 nM |
| Clc1cccc2ccc(N[C@H]3CCC[C@H](NCc4ccsc4)C3)nc12 | 5100 | 15 |  |
| COc1ccc2c(C)cc(N[C@H]3CC[C@H](NCc4cn(C)c5ccc(OC(F)F)cc45)C3)nc2c1 | 5 | 12 | IC50 [2]: 35 nM |
| COc1ccc2c(C)cc(N[C@H]3CC[C@H](NCc4cn(C)c5ccc(OCc6ccccc6)cc45)C3)nc2c1 | 80 | 26 |  |
| COc1ccc2nc(NCC3CCCN(Cc4ccsc4)C3)cc(C)c2c1 (stereo not drawn) | 2990 |  |  |
| Cc1cc(N[C@H]2CCC[C@H](NCc3ccsc3)C2)nc2ccccc12 | 7 | 60 | IC50 [2]: 59 nM |
| FC(F)(F)c1cc(N[C@H]2CCC[C@H](NCc3ccsc3)C2)nc2ccccc12 | 4800 | 68 |  |
| COc1ccc2nc(NCCCNCc3ccsc3)cc(C)c2c1 | 15 |  |  |
| COc1ccc2c(C)cc(N[C@H]3CCC[C@H](NCc4cn(C)c5ccc(Br)cc45)C3)nc2c1 | 61 | 41 |  |
| COc1ccc2nc(N[C@H]3CCC[C@H](NCc4ccsc4)C3)cc(C)c2c1 | 3 |  |  |
| COc1ccc2c(C)cc(N[C@H]3CCC[C@H](NCc4cn(C)nc4C)C3)nc2c1 | 178 |  |  |
